Source: patent US12068729B2, “Anti-factor XII/XIIa antibodies and uses thereof” (Regeneron Pharmaceuticals, Inc., priority 2018, dated 2024)

What was measured:
[1] = tested on: thrombin generated via the Extrinsic and Common pathways; assay: Thrombin Generation Assay (TGA) triggered by Tissue Factor; assay type: biochemical, human
Text: (§1) This Example describes the inhibitory activity of selected antibodies, as determined by four functional plasma assays: 1) Activated Partial Thromboplastin Time (aPTT), 2) Prothrombin Time (PT), 3) Thrombin Generation Assay (TGA) triggered by ellagic acid and 4) TGA triggered by Tissue Factor. The aPTT test evaluates all clotting factors of the Intrinsic and Common pathways of the coagulation cascade by measuring time for a clot to form after the addition of calcium and ellagic acid, whereas the PT test evaluates all clotting factors of the Extrinsic and Common pathways of the coagulation cascade after the addition of calcium and Tissue Factor. The TGA triggered by ellagic acid measures the rate and amount of thrombin generated via the Intrinsic and Common pathways whereas TGA triggered by Tissue Factor measures the rate and amount of thrombin generated via the Extrinsic and Common pathways.
The thrombin generation profile was determined in a Thermo Scientific Hemker Thrombinoscope in the following manner: A total of 55 ul of pooled normal human plasma was added to a well of a microplate at 37° C. Then 5 ul of a 2× serially diluted test article (antibody or small molecule inhibitor) in PBS was added to the well of the microplate and allowed to incubate for 30 min. 15 ul of Tissue Factor PPP Reagent (Diagnostica Stago) was added to the well and allowed to incubate for 45 min. Then 15 ul of Fluo Flu Cal substrate (Diagnostica Stago) was added immediately before a continuous 90 min reading of the microplate. The measured real-time thrombin concentration values were plotted against time to yield a thrombogram profile for each concentration of the test article used.

[2] = tested on: Extrinsic and Common pathways of the coagulation cascade; assay: Prothrombin Time (PT) in pooled normal human plasma; assay type: biochemical
Text: as §1
The PT was determined on Diagnostica Stago STart4 Hemostasis Analyzer in the following manner. A total of 50 ul of pooled normal human plasma was added to a cuvette at 37° C. […] The measured clot time for the test article concentration was normalized to baseline (no drug) plasma clot time and plotted against log molar concentration of the test article. The results were analyzed using nonlinear regression (4-parameter logistics) with Prism 5 software (GraphPad) to obtain doubling time concentration.

[3] = tested on: Intrinsic and Common pathways of the coagulation cascade; assay: Activated Partial Thromboplastin Time (aPTT) in pooled normal human plasma; assay type: biochemical
Text: as §1, with “The TGA triggered by ellagic acid measures the rate and amount of thrombin generated via the Intrinsic and Common pathways whereas TGA triggered by Tissue Factor measures the rate and amount of thrombin generated via the Extrinsic and Common pathways.” left out
The aPTT was determined on Diagnostica Stago STart4 Hemostasis Analyzer in the following manner: A total of 50 ul of pooled normal human plasma was added to a cuvette at 37° C. […] The measured clot time for the test article concentration was normalized to baseline (no drug) plasma clot time and plotted against log molar concentration of the test article. The results were analyzed using nonlinear regression (4-parameter logistics) with Prism 5 software (GraphPad) to obtain doubling time concentration.

[4] = tested on: thrombin generated via the Intrinsic and Common pathways; assay: Thrombin Generation Assay (TGA) triggered by ellagic acid; assay type: biochemical, human; details: for Concentration required for ↑ lag time by 2× / Concentration required for ↓ endogenous thrombin potential by ½ / Concentration required for ↓ thrombin peak by ½: Intrinsic Pathway Activation with Ellagic Acid
Text: as §1
The thrombin generation profile was determined in a Thermo Scientific Hemker Thrombinoscope in the following manner: A total of 55 ul of pooled normal human plasma was added to a well of a microplate at 37° C. Then 5 ul of a 2× serially diluted test article (antibody or small molecule inhibitor) in PBS was added to the well of the microplate and allowed to incubate for 30 min. 15 ul of APPT-XL Ellagic Acid (Thermo Scientific) was diluted in MP reagent then added to the well and allowed to incubate for 45 min. Then 15 ul of Fluo Flu Cal substrate (Diagnostica Stago) was added immediately before a continuous 90 min reading of the microplate. The measured real-time thrombin concentration values were plotted against time to yield a thrombogram profile for each concentration of the test article used.

[5] = Extrinsic Pathway Activation with Tissue Factor
[6] = conc. of drug required to increase clotting time by 2-fold over baseline
[7] = dose response curves, pooled normal human plasma

COc1ccc(-n2nc(C(N)=O)c3c2C(=O)N(c2ccc(N4CCCCC4=O)cc2)CC3)cc1 [Apixaban, reference compound]
Concentration required for ↑ lag time by 2× [1, 5]: 250 nM | Concentration required for ↓ endogenous thrombin potential by ½ [1, 5]: 250 nM | Concentration required for ↓ thrombin peak by ½ [1, 5]: 62.5 nM | effect on thrombin generation (in words) ([1]; plasma triggered by Tissue Factor): dose dependently inhibited thrombin generation | C2xt of Prothrombin Time (PT) - Extrinsic Pathway [2, 6]: 3.5 µM | effect on plasma PT (in words) [2, 7]: prolonged both aPTT and PT with uM concentrations | C2xt of activated Partial Thromboplastin Time (aPTT) - Intrinsic Pathway [3, 6]: 7 µM | effect on plasma aPTT (in words) [3, 7]: prolonged both aPTT and PT with uM concentrations | Concentration required for ↑ lag time by 2× [4]: > 500 nM | Concentration required for ↓ endogenous thrombin potential by ½ [4]: > 500 nM | Concentration required for ↓ thrombin peak by ½ [4]: > 500 nM | Concentration required for ↑ lag time by 2× ([4]; dash cells, dose up to 500 nM): — (no effect on thrombin generation with a dose up to 500 nM) | Concentration required for ↓ endogenous thrombin potential by ½ ([4]; dash cells, dose up to 500 nM): — (no effect on thrombin generation with a dose up to 500 nM) | Concentration required for ↓ thrombin peak by ½ ([4]; dash cells, dose up to 500 nM): — (no effect on thrombin generation with a dose up to 500 nM) | effect on thrombin generation (in words) ([4]; plasma triggered by ellagic acid): dose dependent reduction in thrombin generation
